Data taken from patent publication US8329738B2, “Use of AMPK-activating imidazole derivatives, preparation process therefor and pharmaceutical compositions comprising them” (Merck Patent Gesellschaft mit Beschränkter Haftung, priority 2006, dated 2012).

System: AMPK
Test: AMPK activation: phosphorylation of peptide AMARAA, Delfia protocol
Format: biochemical
Details: relative to the basal activity (100%) obtained in the absence of AMP, partially purified AMPK from rat liver
Protocol: 25 mU of AMPK are incubated in the presence of different concentrations of AMP or of products, for 30 minutes at 30° C., in a final volume of 30 μl comprising 50 mM Hepes, 19 mM MgCl2, 125 μM ATP, 5 mM NaPPi, 1 mM EDTA, 1 mM DTT, 2 mM Na3VO4 and 25 μM of peptide AMARAA biotinyl (Biot-NH-AMARAASAAALARRR-COOH).
The phosphorylation of the peptide AMARAA is then measured according to a Delfia protocol (Perkin-Elmer), using a europium-labelled anti-phospho-serine specific antibody.
The AMPK used in this test is a partially purified protein from rat liver.
The percentage of activation is calculated relative to the basal activity (100%) obtained in the absence of AMP.

Compound | % Activation at 200 μM [%]
COc1ccc(NC(=O)Nc2ccc(Cn3cnc(O)c3C(N)=O)cc2)cc1 [Example 43, 5-hydroxy-3-{4-[3-(4-methoxyphenyl)ureido]benzyl}-3H-imidazole-4-carboxamide] | 229
CCc1ccc(NC(=O)Nc2ccc(Cn3cnc(O)c3C(N)=O)cc2)cc1 [Example 56, 5-hydroxy-3-{4-[3-(4-ethylphenyl)ureido]benzyl}-3H-imidazole-4-carboxamide] | 289
NC(=O)c1c(O)ncn1Cc1ccc(NC(=O)Nc2cccc3ccccc23)cc1 [Example 47, 5-hydroxy-3-[4-(3-naphthalen-1-ylureido)benzyl]-3H-imidazole-4-carboxamide] | 184
NC(=O)c1c(O)ncn1Cc1ccc(NC(=O)Nc2ccc(Cl)cc2)cc1 [Example 44, 5-hydroxy-3-{4-[3-(4-chlorophenyl)ureido]benzyl}-3H-imidazole-4-carboxamide] | 147
CSc1ccc(NC(=O)Nc2ccc(Cn3cnc(O)c3C(N)=O)cc2)cc1 [Example 58, 5-hydroxy-3-{4-[3-(4-methylsulfanylphenyl)ureido]benzyl}-3H-imidazole-4-carboxamide] | 311

System: not given
Test: not given
Details: not given

Compound | melting point [°C]
CCOC(=O)c1ncn(CCOc2ccc(C#N)cc2)c1O [Example 6, ethyl 5-hydroxy-1-[2-(-4-cyanophenoxy)ethyl]-1H-imidazole-4-carboxylate] | 190
CCOC(=O)c1ccc(Cn2cnc(O)c2C(N)=O)cc1 [Example 12, 5-hydroxy-3-[4-(ethoxycarbonyl)benzyl]imidazole-4-carboxamide] | 266 to 268
CCOC(=O)c1ncn(CCOc2ccc(F)cc2)c1O [Example 7, ethyl 5-hydroxy-1-[2-(-4-fluorophenoxy)ethyl]-1H-imidazole-4-carboxylate] | 200
NC(=O)c1ncn(CCOc2ccccc2)c1O [Example 2, 5-hydroxy-1-(2-phenoxyethyl)-1H-imidazole-4-carboxamide] | 192
NC(=O)c1c(O)ncn1Cc1ccc(Cl)cc1 [Example 11, 5-hydroxy-3(4-chlorobenzyl)imidazole 4-carboxamide] | 206 to 212
N#Cc1ccc(OCCn2cnc(C(N)=O)c2O)cc1 [Example 3, 1-[2-(4-cyanophenoxy)ethyl]-5-hydroxy-1H-imidazole-4-carboxamide] | 190
NC(=O)c1c(O)ncn1Cc1ccc(NC(=O)Nc2ccccc2)cc1 [Example 41, 5-hydroxy-3-[4-(3-phenylureido)benzyl]-3H-imidazole-4-carboxamide] | 232 to 235
NC(=O)Nc1ccc(Cn2cnc(O)c2C(N)=O)cc1 [Example 42, 5-hydroxy-3-[4-ureidobenzyl]-3H-imidazole-4-carboxamide] | 243 to 244
CCOC(=O)c1ncn(CCOc2ccc(C(=O)OC)cc2)c1O [Example 8, ethyl 5-hydroxy-1-{2-[-4(methoxycarbonyl)phenoxy]ethyl}-1H-imidazole-4-carboxylate] | 202
COc1ncn(Cc2ccc([N+](=O)[O-])cc2)c1C(N)=O [Example 19, 3-(4-nitrobenzyl)-5-methoxy-3H-imidazole-4-carboxamide] | 201 to 203
CCOC(=O)c1ncn(Cc2ccccc2)c1OC [Example 9, ethyl 1-benzyl-5-methoxy-1H-imidazole-4-carboxylate] | 150 to 153
N#Cc1ccc(OCCn2cnc(O)c2C(N)=O)cc1 [Example 16, 3-[2-(4-cyanophenoxy)ethyl]-5-hydroxy-3H-imidazole-4-carboxamide] | 264
NC(=O)c1c(O)ncn1CCOc1ccc(F)cc1 [Example 15, 3-[2-(4-fluorophenoxy)ethyl]-5-hydroxy-3H-imidazole-4-carboxamide] | 230
NC(=O)c1ncn(CCOc2ccc(F)cc2)c1O [Example 1, 1-[2-(4-fluorophenoxy)ethyl]-5-hydroxy-1H-imidazole-4-carboxamide] | 204
COC(=O)c1ccc(OCCn2cnc(C(N)=O)c2O)cc1 [Example 4, methyl 4-[2-(4-carbamoyl-5-hydroxyimidazol-1-yl)ethoxy]benzoate] | 190
NC(=O)c1c(O)ncn1Cc1ccc(N)cc1 [Example 18, 3-(4-aminobenzyl)-5-hydroxy-3H-imidazole-4-carboxamide] | 230 to 231
COc1cccc(C(=O)Nc2ccc(Cn3cnc(O)c3C(N)=O)cc2)c1 [Example 21, 5-hydroxy-3-[4-(3-methoxybenzoylamino)benzyl]-3H-imidazole-4-carboxamide] | 257 to 259
NC(=O)c1c(O)ncn1Cc1ccc(F)cc1 [Example 10, 5-hydroxy-3-(4-fluorobenzyl)imidazole-4-carboxamide] | 230 to 234
NC(=O)c1c(OCc2ccccc2)ncn1Cc1ccc([N+](=O)[O-])cc1 [Example 20, 3-(4-nitrobenzyl)-5-benzyloxy-3H-imidazole-4-carboxamide] | 193 to 195
COC(=O)c1ccc(OCCn2cnc(O)c2C(N)=O)cc1 [Example 16b is, methyl 4-[2-(5-carbamoyl-4-hydroxyimidazol-1-yl)ethoxy]-benzoate] | 263
NC(=O)c1c(O)ncn1Cc1ccc(NC(=O)Nc2cccc(C(=O)O)c2)cc1 [Example 70, 3-{3-[4-(5-carbamoyl-4-hydroxyimidazol-1-ylmethyl)phenyl]ureido}benzoic acid] | 218 to 220
NC(=O)c1c(O)ncn1-c1ccccc1 [Example 13, 5-hydroxy-3-phenylimidazole-4-carboxamide] | 182
